Source: US20260285850A1, “SUBSTITUTED OXAZOLIDINONES AND IMIDAZOLINONES AS HERBICIDES” (FMC CORPORATION, priority 2023, published 2026)

Columns and labels:
Format in all cases: in vivo
[1] = system: barnyardgrass (Echinochloa crus-galli); assay: Test A preemergence soil spray, visual injury rating 0-100; conditions: 10 days
Method in brief: (§1)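 Grow plants in loam soil blended with sand. Apply formulated compound (non-phytotoxic solvent, surfactant) as a directed soil spray before emergence, or to plants at the one- to two-leaf stage after emergence. Hold in greenhouse 10 days, then rate injury visually versus untreated controls on a 0-100 scale.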

[2] = system: blackgrass (Alopecurus myosuroides); assay: as above; conditions: 10 days
Method in brief: as §1

corn (Zea mays) [3] = assay: as above; conditions: 10 days
Method in brief: as §1

[4] = system: green foxtail (Setaria viridis); assay: as above; conditions: 10 days
Method in brief: as §1

kochia (Bassia scoparia) [5] = assay: as above; conditions: 62 g ai/ha, 10 days, 0 = no effect, 100 = complete control
Method in brief: as §1

[6] = system: oat, wild (wild oat, Avena fatua); assay: as above; conditions: 10 days
Method in brief: as §1

[7] = system: palmer (palmer amaranth, palmer pigweed, Amaranthus palmeri); assay: as above; conditions: 10 days
Method in brief: as §1

[8] = system: ragweed (common ragweed, Ambrosia artemisiifolia); assay: as above; conditions: 10 days
Method in brief: as §1

[9] = system: ryegrass, Italian (italian ryegrass, Lolium multiflorum); assay: as above; conditions: 10 days
Method in brief: as §1

soybean (Glycine max) [10] = assay: as above; conditions: 10 days
Method in brief: as §1

[11] = system: wheat (Triticum aestivum); assay: as above; conditions: 10 days
Method in brief: as §1

[12] = system: barnyardgrass (Echinochloa crus-galli); assay: Test A postemergence application, visual injury rating 0-100
Method in brief: as §1

[13] = system: blackgrass (Alopecurus myosuroides); assay: as above
Method in brief: as §1

corn (Zea mays) [14] = assay: as above
Method in brief: as §1

[15] = system: galium (catchweed bedstraw, Galium aparine); assay: as above
Method in brief: as §1

[16] = system: green foxtail (Setaria viridis); assay: as above
Method in brief: as §1

[17] = system: horseweed (Erigeron canadensis); assay: as above
Method in brief: as §1

kochia (Bassia scoparia) [18] = assay: as above
Method in brief: as §1

[19] = system: oat, wild (wild oat, Avena fatua); assay: as above
Method in brief: as §1

[20] = system: palmer (palmer amaranth, palmer pigweed, Amaranthus palmeri); assay: as above
Method in brief: as §1

[21] = system: ragweed (common ragweed, Ambrosia artemisiifolia); assay: as above
Method in brief: as §1

[22] = system: ryegrass, Italian (italian ryegrass, Lolium multiflorum); assay: as above
Method in brief: as §1

soybean (Glycine max) [23] = assay: as above
Method in brief: as §1

[24] = system: wheat (Triticum aestivum); assay: as above
Method in brief: as §1

[25] = system: barnyardgrass (Echinochloa crusgalli); assay: Test B flooded paddy test, visual plant response rating 0-100; conditions: 250 g ai/ha, Flood, applied to paddy water, evaluated after 13 days
Method in brief: (§2)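 2-leaf plants; flood 3 cm over soil; compound dosed into paddy water; depth kept constant; greenhouse 13 d; visual scoring vs controls. Dash = no result.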

[26] = system: ducksalad (Heteranthera limosa); assay: as above; conditions: 250 g ai/ha, Flood, applied to paddy water, evaluated after 13 days
Method in brief: as §2

rice (Oryza sativa) = assay: as above; conditions: 250 g ai/ha, Flood, applied to paddy water, evaluated after 13 days
Method in brief: as §2

[27] = system: sedge, umbrella (small-flower umbrella sedge, Cyperus difformis); assay: as above; conditions: 250 g ai/ha, Flood, applied to paddy water, evaluated after 13 days
Method in brief: as §2

[28] = 62 g ai/ha, 0 = no effect, 100 = complete control
[29] = 62 g ai/ha, postemergence, 10 days, 0 = no effect, 100 = complete control
[30] = Postemergence, 16 g ai/ha, greenhouse 10 days, 0 no effect, 100 complete control

COC(=O)C1C=CC(NC(=O)C2(C)CN(c3cc(C)cc(C)c3)C(=O)O2)C1 (stereo not drawn) [Compound 115]
Barnyardgrass plant response rating ([1]; 16 g ai/ha, 0 to 100 scale): 30 | Barnyardgrass plant response rating (0-100) [1, 28]: 100 | Blackgrass plant response rating ([2]; 16 g ai/ha, 0 to 100 scale): 20 | Blackgrass plant response rating (0-100) [2, 28]: 60 | Corn plant response rating (corn (Zea mays) [3]; 16 g ai/ha, 0 to 100 scale): 0 | Corn plant response rating (0-100) (corn (Zea mays) [3]; [28]): 20 | Foxtail, Green plant response rating ([4]; 16 g ai/ha, 0 to 100 scale): 0 | Foxtail, Green plant response rating (0-100) [4, 28]: 30 | Kochia plant response rating (0-100) (kochia (Bassia scoparia) [5]): 100 | Oat, Wild plant response rating ([6]; 16 g ai/ha, 0 to 100 scale): 0 | Oat, Wild plant response rating (0-100) [6, 28]: 40 | Pigweed, Palmer plant response rating ([7]; 16 g ai/ha, 0 to 100 scale): 20 | Pigweed, Palmer plant response rating (0-100) [7, 28]: 90 | Ragweed plant response rating ([8]; 16 g ai/ha, 0 to 100 scale): 0 | Ragweed plant response rating (0-100) [8, 28]: 0 | Ryegrass, Italian plant response rating ([9]; 16 g ai/ha, 0 to 100 scale): 10 | Ryegrass, Italian plant response rating (0-100) [9, 28]: 30 | Soybean plant response rating (soybean (Glycine max) [10]; 16 g ai/ha, 0 to 100 scale): 0 | Soybean plant response rating (0-100) (soybean (Glycine max) [10]; [28]): 0 | Wheat plant response rating ([11]; 16 g ai/ha, 0 to 100 scale): 0 | Wheat plant response rating (0-100) [11, 28]: 30 | Barnyardgrass plant response rating (0-100) [12, 29]: 100 | Barnyardgrass plant response rating (0 to 100 scale) [12, 30]: 70 | Blackgrass plant response rating (0-100) [13, 29]: 90 | Blackgrass plant response rating (0 to 100 scale) [13, 30]: 70 | Corn plant response rating (0-100) (corn (Zea mays) [14]; [29]): 100 | Corn plant response rating (0 to 100 scale) (corn (Zea mays) [14]; [30]): 60 | Galium plant response rating (0-100) [15, 29]: 70 | Galium plant response rating (0 to 100 scale) [15, 30]: 60 | Foxtail, Green plant response rating (0-100) [16, 29]: 30 | Foxtail, Green plant response rating (0 to 100 scale) [16, 30]: 10 | Horseweed plant response rating (0-100) [17, 29]: 0 | Horseweed plant response rating (0 to 100 scale) [17, 30]: 10 | Kochia plant response rating (0-100) (kochia (Bassia scoparia) [18]; [29]): 70 | Kochia plant response rating (0 to 100 scale) (kochia (Bassia scoparia) [18]; [30]): 0 | Oat, Wild plant response rating (0-100) [19, 29]: 90 | Oat, Wild plant response rating (0 to 100 scale) [19, 30]: 80 | Pigweed, Palmer plant response rating (0-100) [20, 29]: 10 | Pigweed, Palmer plant response rating (0 to 100 scale) [20, 30]: 10 | Ragweed plant response rating (0-100) [21, 29]: 30 | Ragweed plant response rating (0 to 100 scale) [21, 30]: 0 | Ryegrass, Italian plant response rating (0-100) [22, 29]: 70 | Ryegrass, Italian plant response rating (0 to 100 scale) [22, 30]: 40 | Soybean plant response rating (0-100) (soybean (Glycine max) [23]; [29]): 60 | Soybean plant response rating (0 to 100 scale) (soybean (Glycine max) [23]; [30]): 40 | Wheat plant response rating (0-100) [24, 29]: 80 | Wheat plant response rating (0 to 100 scale) [24, 30]: 30 | Plant response rating, Barnyardgrass (0 to 100 scale, 0 is no effect and 100 is complete control) [25]: 65 | Plant response rating, Ducksalad (0 to 100 scale, 0 is no effect and 100 is complete control) [26]: 80 | Plant response rating, Rice (0 to 100 scale, 0 is no effect and 100 is complete control) (rice (Oryza sativa)): 25 | Plant response rating, Sedge, Umbrella (0 to 100 scale, 0 is no effect and 100 is complete control) [27]: 0
